Measured values published in PubChem BioAssay (NCI).
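Interpolation was linear, between the two tested concentrations surrounding the appropriate level; five concentrations were tested over 48 hours in 96-well plates. GI50 is the concentration that inhibits growth by half. TGI: total growth inhibition.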

Experiments:
Experiment in all cases: NCI anticancer screen, dose series, 48 h
[1] = system: OVCAR-5 ovarian
[2] = system: SF-295 CNS
[3] = system: K-562 leukemia
[4] = system: LOX IMVI melanoma
[5] = system: HOP-62 NSCLC
[6] = system: NCI/ADR-RES ovarian
[7] = system: CCRF-CEM leukemia
[8] = system: M14 melanoma
[9] = system: OVCAR-4 ovarian
[10] = system: MDA-MB-231 breast
[11] = system: SF-268 CNS
[12] = system: SK-OV-3 ovarian
[13] = system: HCT-116 colon
[14] = system: U251 CNS
[15] = system: HOP-92 NSCLC
[16] = system: T-47D breast
[17] = system: NCI-H522 lung
[18] = system: A549 NSCLC
[19] = system: MDA-MB-435
[20] = system: BT-549 breast
[21] = system: ACHN renal
[22] = system: SK-MEL-2 melanoma
[23] = system: HCC-2998 colon
[24] = system: SK-MEL-5 melanoma
[25] = system: UACC-257 melanoma
[26] = system: NCI-H460 lung
[27] = system: HT29 colon
[28] = system: COLO 205 colon
[29] = system: SF-539 CNS
[30] = system: 786-0 renal
[31] = system: MCF7 breast
[32] = system: SK-MEL-28 melanoma
[33] = system: NCI-H23 lung
[34] = system: SR leukemia
[35] = system: SW-620 colon
[36] = system: HL-60(TB) leukemia
[37] = system: MOLT-4 leukemia
[38] = system: DU-145 prostate
[39] = system: PC-3 prostate
[40] = system: NCI-H226 lung
[41] = system: KM12 colon
[42] = system: UO-31 renal
[43] = system: TK-10 renal
[44] = system: SNB-75 CNS
[45] = system: SN12C renal
[46] = system: OVCAR-3 ovarian
[47] = system: RXF 393 renal
[48] = system: OVCAR-8 ovarian
[49] = system: UACC-62 melanoma
[50] = system: HS 578T breast
[51] = system: SNB-19 CNS
[52] = system: HCT-15 colon
[53] = system: CAKI-1 renal
[54] = system: EKVX NSCLC
[55] = system: A498 renal
[56] = system: RPMI-8226 leukemia
[57] = system: IGROV1 ovarian
[58] = system: MALME-3M melanoma

COc1ccc(/C=C/C(=O)c2cc3c(N)c(C(=O)Nc4ccc(OC)cc4)sc3nc2C)cc1
GI50 [1]: 0.299 µM
TGI [1]: > 50 µM
GI50 [2]: 0.0645 µM
GI50 [3]: 0.385 µM
TGI [3]: > 50 µM
GI50 [4]: 1.06 µM
TGI [4]: 11.3 µM
GI50 [5]: 0.214 µM
TGI [5]: > 50 µM
GI50 [6]: 0.185 µM
TGI [6]: 1.49 µM
GI50 [7]: 0.567 µM
TGI [7]: > 50 µM
GI50 [8]: 0.19 µM
GI50 [9]: 0.324 µM
TGI [9]: > 50 µM
GI50 [10]: 1.28 µM
TGI [10]: 22 µM
GI50 [11]: 2.02 µM
TGI [11]: > 50 µM
GI50 [12]: 0.215 µM
TGI [12]: > 50 µM
GI50 [13]: 0.0634 µM
TGI [13]: 17.5 µM
GI50 [14]: 1.65 µM
TGI [14]: > 30.9 µM
GI50 [15]: 0.757 µM
TGI [15]: > 50 µM
GI50 [16]: 0.403 µM
TGI [16]: > 50 µM
GI50 [17]: 0.178 µM
TGI [17]: > 26.5 µM
GI50 [18]: 0.231 µM
TGI [18]: > 50 µM
GI50 [19]: 0.0189 µM
TGI [19]: 0.0777 µM
GI50 [20]: 0.571 µM
TGI [20]: > 50 µM
GI50 [21]: 0.397 µM
TGI [21]: > 50 µM
GI50 [22]: 0.359 µM
TGI [22]: > 50 µM
GI50 [23]: 0.174 µM
GI50 [24]: 0.203 µM
TGI [24]: 4.03 µM
GI50 [25]: > 23.4 µM
TGI [25]: > 50 µM
GI50 [26]: 0.155 µM
TGI [26]: 0.484 µM
GI50 [27]: 0.404 µM
TGI [27]: > 28.4 µM
GI50 [28]: 0.158 µM
TGI [28]: 0.609 µM
GI50 [29]: 0.327 µM
TGI [29]: 1.54 µM
GI50 [30]: 0.353 µM
TGI [30]: > 50 µM
GI50 [31]: 0.0644 µM
TGI [31]: > 50 µM
GI50 [32]: 0.4 µM
TGI [32]: > 50 µM
GI50 [33]: 0.181 µM
GI50 [34]: 0.889 µM
TGI [34]: > 50 µM
GI50 [35]: 0.543 µM
TGI [35]: > 50 µM
GI50 [36]: 0.323 µM
TGI [36]: 2.22 µM
GI50 [37]: 0.697 µM
TGI [37]: > 50 µM
GI50 [38]: 0.184 µM
TGI [38]: 7.78 µM
GI50 [39]: 0.434 µM
TGI [39]: > 50 µM
GI50 [40]: 0.0872 µM
GI50 [41]: 0.203 µM
TGI [41]: 20.5 µM
GI50 [42]: 0.988 µM
TGI [42]: > 50 µM
GI50 [43]: 2.85 µM
TGI [43]: > 50 µM
GI50 [44]: 0.344 µM
TGI [44]: 2.21 µM
GI50 [45]: 0.284 µM
TGI [45]: > 50 µM
GI50 [46]: 0.0276 µM
TGI [46]: 1.96 µM
GI50 [47]: 0.124 µM
GI50 [48]: 0.334 µM
TGI [48]: > 50 µM
GI50 [49]: 0.161 µM
TGI [49]: > 50 µM
GI50 [50]: 0.211 µM
TGI [50]: > 11.8 µM
GI50 [51]: 0.746 µM
TGI [51]: > 41.3 µM
GI50 [52]: 0.391 µM
TGI [52]: > 50 µM
GI50 [53]: 0.593 µM
TGI [53]: > 50 µM
GI50 [54]: 1.3 µM
TGI [54]: > 50 µM
GI50 [55]: 0.108 µM
TGI [55]: 0.41 µM
GI50 [56]: 0.348 µM
TGI [56]: > 34 µM
GI50 [57]: 0.551 µM
TGI [57]: > 50 µM

Nn1c(-c2ccc(Cl)cc2)nc2c(-c3ccc(Cl)cc3)nc3ccc(Cl)cc3c2c1=O
GI50 [1]: > 100 µM
TGI [1]: > 100 µM
GI50 [2]: 13.3 µM
TGI [2]: 34.4 µM
GI50 [3]: 11.4 µM
TGI [3]: 48.5 µM
GI50 [4]: 5.77 µM
TGI [4]: 32.9 µM
GI50 [5]: 22.4 µM
TGI [5]: 57.7 µM
GI50 [6]: 48.3 µM
TGI [6]: > 100 µM
TGI [7]: 1.11 µM
GI50 [58]: 21.3 µM
TGI [58]: 65.4 µM
GI50 [8]: 15.1 µM
TGI [8]: > 100 µM
GI50 [9]: 3.55 µM
TGI [9]: 15.1 µM
GI50 [10]: 14.1 µM
TGI [10]: 62.5 µM
GI50 [11]: 5.18 µM
TGI [11]: 72.3 µM
GI50 [12]: 14.5 µM
TGI [12]: 40.3 µM
GI50 [13]: 5.79 µM
TGI [13]: > 100 µM
GI50 [14]: 3.07 µM
TGI [14]: 12.7 µM
GI50 [15]: 13.6 µM
TGI [15]: 31.6 µM
GI50 [16]: 9.3 µM
TGI [16]: 67.2 µM
GI50 [17]: 20.9 µM
TGI [17]: > 100 µM
GI50 [18]: 4.8 µM
TGI [18]: > 100 µM
GI50 [19]: > 100 µM
TGI [19]: > 100 µM
GI50 [20]: 14.5 µM
TGI [20]: 60.2 µM
GI50 [21]: 5.42 µM
TGI [21]: 25.5 µM
GI50 [22]: 25.2 µM
TGI [22]: > 100 µM
GI50 [24]: 56.6 µM
TGI [24]: > 100 µM
GI50 [25]: 25.2 µM
TGI [25]: > 100 µM
GI50 [26]: 3.36 µM
TGI [26]: > 100 µM
GI50 [27]: > 100 µM
TGI [27]: > 100 µM
GI50 [28]: 19.5 µM
TGI [28]: > 100 µM
GI50 [29]: 10.4 µM
TGI [29]: 36.8 µM
GI50 [30]: 16.4 µM
TGI [30]: 54.3 µM
GI50 [31]: 4.1 µM
TGI [31]: > 100 µM
GI50 [32]: 49.6 µM
TGI [32]: > 100 µM
GI50 [33]: 33 µM
TGI [33]: > 100 µM
GI50 [34]: 4.08 µM
TGI [34]: 20.2 µM
GI50 [35]: 6.06 µM
TGI [35]: > 100 µM
GI50 [36]: 2.76 µM
TGI [36]: > 100 µM
GI50 [37]: 4.67 µM
TGI [37]: > 100 µM
GI50 [38]: 4.96 µM
TGI [38]: > 100 µM
GI50 [39]: 60.7 µM
TGI [39]: > 100 µM
GI50 [40]: 40.8 µM
TGI [40]: > 100 µM
GI50 [41]: > 100 µM
TGI [41]: > 100 µM
GI50 [42]: 16.9 µM
TGI [42]: > 100 µM
GI50 [43]: 22.4 µM
TGI [43]: 58.4 µM
GI50 [44]: 4.79 µM
TGI [44]: 19.5 µM
GI50 [45]: 7.46 µM
TGI [45]: > 100 µM
GI50 [46]: 2.7 µM
TGI [46]: 8.68 µM
GI50 [47]: 11.8 µM
TGI [47]: 30.9 µM
GI50 [48]: 7.58 µM
TGI [48]: 95.2 µM
GI50 [49]: 32.2 µM
TGI [49]: > 100 µM
GI50 [50]: 12.1 µM
TGI [50]: 85 µM
GI50 [51]: 9.06 µM
TGI [51]: 47.7 µM
GI50 [52]: > 100 µM
TGI [52]: > 100 µM
GI50 [53]: 3.97 µM
TGI [53]: 22 µM
GI50 [54]: 5.86 µM
TGI [54]: > 100 µM
GI50 [55]: 36 µM
TGI [55]: 75.7 µM
GI50 [56]: 4.14 µM
TGI [56]: 26.3 µM
GI50 [57]: 4.01 µM
TGI [57]: 32.8 µM
